Results on 24 compounds are retold here after patent publication US12559487B2, “Crosslinked optically active secondary amine derivative” (Sumitomo Pharma Co., Ltd., priority 2019, dated 2026).

In general, pIC50 refers to −log10 of the IC50, conventionally taken in molar units.

pIC50: −log10 of the molar value. Like-named read-outs stand apart in the source and are kept apart here. Bounds are passed on as bounds.

In one series the test system is MV4; 11 cells. Put plainly: Test 1: Test for evaluating the inhibition of cell proliferation. Conditions: for pIC50: cultured for 7 days, PrestoBlue cell viability. In kind it is cell-based. As for the experimental part:
MV4; 11 cells were obtained from American Type Culture Collection (ATCC). The cells were cultured at 37° C. in the presence of 5% CO2 in RPMI 1640 medium containing 10% fetal bovine serum and 1% penicillin/streptomycin.
The cells were plated to a 96-well plate in 2000 cells/well, each test compound was added thereto to adjust the final concentration of DMSO to 0.1% of DMSO, and the cells were cultured for 7 days. After the cultivation, the cell viability was calculated with PrestoBlue™ Cell Viability Reagent (Invitrogen, A13261).

For series [1], the target named is T1, hERG (human Ether-a-go-go Related Gene) (Homo sapiens (Human), UniProt Q12809).
Series [2] has as its target T1, hERG (human Ether-a-go-go Related Gene). In words: Test 2: Test for the hERG inhibition (QPatch HT, CHO cell strain stably expressing hERG). Conditions: for pIC50: CHO cells stably expressing hERG, QPatch HT; for hERG/MV4; 11: hERG IC50 divided by MV4, 11 proliferation IC50; for gap between concentration inhibiting 50% of MV4; 11 proliferation and concentration inhibiting 50% of hERG current: hERG IC50 vs MV4, 11 IC50.

[3] abbreviates: read-out: hERG IC50, hERG current.

T1 sequence (Q12809 whole entry): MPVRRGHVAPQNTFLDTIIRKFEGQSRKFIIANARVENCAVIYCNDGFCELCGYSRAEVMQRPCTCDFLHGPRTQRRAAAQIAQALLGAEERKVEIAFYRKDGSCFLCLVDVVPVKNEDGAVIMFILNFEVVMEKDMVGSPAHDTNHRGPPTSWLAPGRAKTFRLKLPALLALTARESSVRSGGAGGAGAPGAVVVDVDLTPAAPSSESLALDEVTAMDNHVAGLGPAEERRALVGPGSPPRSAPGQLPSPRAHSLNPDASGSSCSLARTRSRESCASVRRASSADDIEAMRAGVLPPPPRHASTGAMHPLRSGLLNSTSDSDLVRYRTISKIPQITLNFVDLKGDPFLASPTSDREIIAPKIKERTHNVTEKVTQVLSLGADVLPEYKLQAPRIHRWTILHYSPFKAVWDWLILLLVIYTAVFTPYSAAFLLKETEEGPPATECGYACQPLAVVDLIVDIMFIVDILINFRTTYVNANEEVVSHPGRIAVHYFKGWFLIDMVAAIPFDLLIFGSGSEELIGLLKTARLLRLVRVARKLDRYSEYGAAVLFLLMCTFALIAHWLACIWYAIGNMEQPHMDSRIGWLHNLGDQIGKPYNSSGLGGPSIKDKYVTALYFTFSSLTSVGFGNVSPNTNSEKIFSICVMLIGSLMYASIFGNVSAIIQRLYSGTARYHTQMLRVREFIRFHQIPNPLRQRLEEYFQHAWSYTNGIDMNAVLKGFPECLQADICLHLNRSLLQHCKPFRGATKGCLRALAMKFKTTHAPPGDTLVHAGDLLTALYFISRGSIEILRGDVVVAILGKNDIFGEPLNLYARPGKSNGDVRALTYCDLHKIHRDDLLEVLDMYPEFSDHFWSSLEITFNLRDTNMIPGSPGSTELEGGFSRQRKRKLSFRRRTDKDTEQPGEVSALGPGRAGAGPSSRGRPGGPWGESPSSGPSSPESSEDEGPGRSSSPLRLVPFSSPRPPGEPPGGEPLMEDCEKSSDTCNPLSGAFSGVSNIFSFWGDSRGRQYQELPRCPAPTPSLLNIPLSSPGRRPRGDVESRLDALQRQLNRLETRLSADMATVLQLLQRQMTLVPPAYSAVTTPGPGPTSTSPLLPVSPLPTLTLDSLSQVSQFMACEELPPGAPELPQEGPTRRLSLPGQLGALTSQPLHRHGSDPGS

Regarding “2-(3-{1-[(3S)-2-azabicyclo[2.2.2]octane-3-carbonyl]pyrrolidin-3-yl}-1H-pyrrolo[2,3-c]pyridin-1-yl)-5-fluoro-N-methyl-N-(propan-2-yl)benzamide [Example 7]”, the pIC50 in the series on MV4; 11 cells is 7.28. For the same compound, the “hERG/MV4; 11” value in series [1] turned out to be 775.

Take “2-(3-{1-[(1S,3S,4R,6S)-6-(cyclopropylmethyl)-2-azabicyclo[2.2.2]octane-3-carbonyl]piperidin-4-yl}-1H-pyrrolo[2,3-c]pyridin-1-yl)-5-fluoro-N,N-di(propan-2-yl)benzamide [Example 6]”: the negative logarithm of the IC50 (pIC50) in the series with MV4; 11 cells was > 8.52.

For the compound “5-fluoro-2-(3-{1-[(1S,3S,4S,5S)-5-fluoro-2-azabicyclo[2.2.2]octane-3-carbonyl]azepan-4-yl}-1H-pyrrolo[2,3-c]pyridin-1-yl)-N-methyl-N-(propan-2-yl)benzamide [Example 12]”, in the series with MV4; 11 cells, the negative logarithm of the IC50 (pIC50) is > 7.52. In series [1], the “hERG/MV4; 11” value was >1050.

In the case of “2-[3-({1-[(3S)-2-azabicyclo[2.2.2]octane-3-carbonyl]azetidin-3-yl}methyl)-1H-pyrrolo[2,3-c]pyridin-1-yl]-5-fluoro-N-methyl-N-(propan-2-yl)benzamide [Example 26]”, in the series on MV4; 11 cells, the pIC50 was 5.77. Further, the “hERG/MV4; 11” value in series [1] was >59.

For the compound “2-(3-{1-[(3S)-2-azabicyclo[2.2.2]octane-3-carbonyl]piperidin-3-yl}-1H-pyrrolo[2,3-c]pyridin-1-yl)-5-fluoro-N-methyl-N-(propan-2-yl)benzamide [Example 9]”, the pIC50 in the series with MV4; 11 cells is 5.77. Further, the “hERG/MV4; 11” value in series [1] worked out at 22.

With “(3S)—N-[(1S)-3-(1-{4-fluoro-2-[methyl(propan-2-yl)carbamoyl]phenyl}-1H-pyrrolo[2,3-c]pyridin-3-yl)cyclohexyl]-2-azabicyclo[2.2.2]octane-3-carboxamide [Example 30]”, the pIC50 in the series on MV4; 11 cells is 6.26. Besides, the “hERG/MV4; 11” value in series [1] is 13.

Turning to `C=C1C[C@@H]2CC[C@H]1[C@@H](C(=O)N1CCCC(c3cn(-c4ccc(F)cc4C(=O)N(C(C)C)C(C)C)c4cnccc34)CCC1)N2` [Example 18, 5-fluoro-2-(3-{1-[(1S,3S,4R)-5-methylidene-2-azabicyclo[2.2.2]octane-3-carbonyl]azocan-5-yl}-1H-pyrrolo[2,3-c]pyridin-1-yl)-N,N-di(propan-2-yl)benzamide], in the series on MV4; 11 cells, the negative logarithm of the IC50 (pIC50) is 6.14.

Take `CC(C)N(C(=O)c1cc(F)ccc1-n1cc(C2=CC3CCC(C2)N3C(=O)[C@H]2NC3CCC2CC3)c2ccncc21)C(C)C` (single isomer, unassigned) [Example 19a]: the pIC50 with MV4; 11 cells was > 7.52; in series [2] (hERG IC50, hERG current), 5.22. Moreover, the “hERG/MV4; 11” value in series [2] was >200.

For the compound `CC(C)N(C(=O)c1cc(F)ccc1-n1cc(C2=CC3CCC(C2)N3C(=O)[C@H]2NC3CCC2CC3)c2ccncc21)C(C)C` (single isomer, unassigned) [Example 19b], the pIC50 in the series on MV4; 11 cells is 6.85; in series [2] (hERG IC50, hERG current), 5.35. Further, the “hERG/MV4; 11” value in series [2] is reported as 32.

“2-(3-{1-[(3S)-2-azabicyclo[2.2.2]octane-3-carbonyl]pyrrolidin-3-yl}-1H-pyrrolo[2,3-c]pyridin-1-yl)-5-fluoro-N,N-di(propan-2-yl)benzamide [Example 8]” showed a negative-log IC50 (pIC50) in the series with MV4; 11 cells of 7.62. In addition, the “hERG/MV4; 11” value in series [1] is 404.

Turning to “2-(3-{1-[(3S)-2-azabicyclo[2.2.2]octane-3-carbonyl]-1,2,3,6-tetrahydropyridin-4-yl}-1H-pyrrolo[2,3-c]pyridin-1-yl)-5-fluoro-N-methyl-N-(propan-2-yl)benzamide [Example 2]”, the figures for the pIC50 (in the series on MV4; 11 cells; in series [2] (setting [3])) were 6.28 and 4.27, respectively. Besides, the “hERG/MV4; 11” value in series [2] was 102. In series [2], the “gap between concentration inhibiting 50% of MV4; 11 proliferation and concentration inhibiting 50% of hERG current” value is on record as “more than 100 fold”.

“5-fluoro-N-methyl-2-(3-{1-[(1S,3S,4R)-5-methylidene-2-azabicyclo[2.2.1]heptane-3-carbonyl]azepan-4-yl}-1H-pyrrolo[2,3-c]pyridin-1-yl)-N-(propan-2-yl)benzamide [Example 13]” showed a pIC50 with MV4; 11 cells of 6.89. Moreover, the “hERG/MV4; 11” value in series [1] came out at 198.

“2-[3-({4-[(3S)-2-azabicyclo[2.2.2]octane-3-carbonyl]-1,4-diazepan-1-yl}methyl)-1H-pyrrolo[2,3-c]pyridin-1-yl]-5-fluoro-N-methyl-N-(propan-2-yl)benzamide [Example 29]” showed a pIC50 in the series on MV4; 11 cells of 5.54. Further, in series [1], the “hERG/MV4; 11” value was >34.

As to “2-(3-{2-[(1R,3S,4S)-2-azabicyclo[2.2.1]heptane-3-carbonyl]-2-azaspiro[3.4]octan-6-yl}-1H-pyrrolo[2,3-c]pyridin-1-yl)-5-fluoro-N-methyl-N-(propan-2-yl)benzamide [Example 24]”, in the series on MV4; 11 cells, the negative-log IC50 (pIC50) is 7.24.

The compound “2-[3-({4-[(3S)-2-azabicyclo[2.2.2]octane-3-carbonyl]piperazin-1-yl}methyl)-1H-pyrrolo[2,3-c]pyridin-1-yl]-5-fluoro-N-methyl-N-(propan-2-yl)benzamide [Example 28]” showed a negative logarithm of the IC50 (pIC50) with MV4; 11 cells of 5.49. Also, in series [1], the “hERG/MV4; 11” value is recorded as >31.

In the case of `CC(C)N(C(=O)c1cc(F)ccc1-n1cc(C2=CCCN(C(=O)[C@H]3NC4CCC3CC4)CCC2)c2ccncc21)C(C)C` [Example 14, 2-(3-{1-[(3S)-2-azabicyclo[2.2.2]octane-3-carbonyl]-1,2,3,4,7,8-hexahydroazocin-5-yl}-1H-pyrrolo[2,3-c]pyridin-1-yl)-5-fluoro-N,N-di(propan-2-yl)benzamide], the pIC50 was 5.66 in the series with MV4; 11 cells (Homo sapiens, MV4-11, 168 h) and 5.49 in series [2] (hERG IC50, hERG current). The “hERG/MV4; 11” value in series [2] is on record as 1.5.

Turning to “2-(3-{1-[(3S)-2-azabicyclo[2.2.2]octane-3-carbonyl]-1,2,3,6-tetrahydropyridin-4-yl}-1H-pyrrolo[2,3-c]pyridin-1-yl)-5-fluoro-N,N-di(propan-2-yl)benzamide [Example 3]”, the pIC50 in the series on MV4; 11 cells is 7.44. Also, the “hERG/MV4; 11” value in series [1] is 489.

In turn, `C=C1C[C@@H]2CC[C@H]1[C@@H](C(=O)N1CCCC(c3cn(-c4ccc(F)cc4C(=O)N(C)C(C)C)c4cnccc34)CCC1)N2` [Example 16, 5-fluoro-N-methyl-2-(3-{1-[(1S,3S,4R)-5-methylidene-2-azabicyclo[2.2.2]octane-3-carbonyl]azocan-5-yl}-1H-pyrrolo[2,3-c]pyridin-1-yl)-N-(propan-2-yl)benzamide] showed a negative-log IC50 (pIC50) in the series with MV4; 11 cells of 6.62.

In turn, “5-fluoro-2-(3-{8-[(1S,3S,4R)-5-methylidene-2-azabicyclo[2.2.2]octane-3-carbonyl]-8-azabicyclo[3.2.1]octan-3-yl}-1H-pyrrolo[2,3-c]pyridin-1-yl)-N,N-di(propan-2-yl)benzamide [Example 23]” had a pIC50 with MV4; 11 cells of 6.55.

As for `CC(C)N(C)C(=O)c1cc(F)ccc1-n1cc(C2CCCN(C(=O)[C@H]3N[C@@H]4CC[C@H]3C4)CC2)c2ccncc21` (stereo partly drawn) [Example 10, 2-(3-{1-[(1R,3S,4S)-2-azabicyclo[2.2.1]heptane-3-carbonyl]azepan-4-yl}-1H-pyrrolo[2,3-c]pyridin-1-yl)-5-fluoro-N-methyl-N-(propan-2-yl)benzamide], in series [2], the “hERG/MV4; 11” value is 621; the “gap between concentration inhibiting 50% of MV4; 11 proliferation and concentration inhibiting 50% of hERG current” value is recorded as “more than 100 fold”.

Consider `CC(C)N(C(=O)c1cc(F)ccc1-n1cc(C2CCN(C(=O)[C@H]3NC4CCC3CC4)CC2)c2ccncc21)C(C)C` [Example 1, 2-(3-{1-[(3S)-2-Azabicyclo[2.2.2]octane-3-carbonyl]piperidin-4-yl}-1H-pyrrolo[2,3-c]pyridin-1-yl)-5-fluoro-N,N-di(propan-2-yl)benzamide], for which the negative-log IC50 (pIC50) in the series on MV4; 11 cells (Homo sapiens, MV4-11, 168 h) is 6.59. In series [2] (hERG IC50, hERG current), this compound gave a pIC50 of 4.52. Besides, in series [2], the “hERG/MV4; 11” value is 114; the “gap between concentration inhibiting 50% of MV4; 11 proliferation and concentration inhibiting 50% of hERG current” value is listed as “more than 100 fold”.

With `CC(C)N(C)C(=O)c1cc(F)ccc1-n1cc(C2CCCN(C(=O)[C@H]3N[C@@H]4CC[C@H]3C4)CC2)c2ccncc21` (mixture of isomers) [Example 10, 2-(3-{1-[(1R,3S,4S)-2-azabicyclo[2.2.1]heptane-3-carbonyl]azepan-4-yl}-1H-pyrrolo[2,3-c]pyridin-1-yl)-5-fluoro-N-methyl-N-(propan-2-yl)benzamide], the pIC50 is 7.05 in the series on MV4; 11 cells (Homo sapiens, MV4-11, 168 h) and 4.26 in series [2] (hERG IC50, hERG current).

Regarding “5-fluoro-N-methyl-2-(3-{8-[(1S,3S,4R)-5-methylidene-2-azabicyclo[2.2.2]octane-3-carbonyl]-8-azabicyclo[3.2.1]octan-3-yl}-1H-pyrrolo[2,3-c]pyridin-1-yl)-N-(propan-2-yl)benzamide [Example 21]”, the pIC50 in the series on MV4; 11 cells was 6.37.

Take “2-(3-{1-[(3S)-2-azabicyclo[2.2.2]octane-3-carbonyl]piperidin-4-yl}-1H-pyrrolo[2,3-c]pyridin-1-yl)-5-fluoro-N-methyl-N-(propan-2-yl)benzamide [Example 4]”: the pIC50 in the series on MV4; 11 cells was 7.14. In the series with MV4; 11 cells (summary in words), the “cell proliferation inhibition activity” value is “potent cell proliferation inhibition activity”. In series [2], the “hERG/MV4; 11” value is on record as >1370; the “gap between concentration inhibiting 50% of MV4; 11 proliferation and concentration inhibiting 50% of hERG current” value is recorded as “more than 100 fold”. Also, the pIC50 in series [2] (setting [3]) was < 4.00. Besides, the “gap between concentration inhibiting 50% of RS4; 11 proliferation and concentration inhibiting 50% of hERG current” value in series [2] (text prints RS4, 11 cells (table is MV4; 11)) was “more than 1000 fold”.
